# Patent US8980886B2, “Anthranilic acid derivatives” (Bayer Cropscience AG, priority 2010, dated 2015)
# Where two headings read alike, the source gives them in different places.
# What was measured:
# Phaedon cochleariae = test: Phaedon test (PHAECO spray treatment); format: in vivo; conditions: 168 h, sprayed Chinese cabbage discs, after 7 days, read-out: activity in % (beetle larvae killed)
# Experimental: (§1) Solvents: 78.0 parts by weight of acetone 1.5 parts by weight of dimethylformamide Emulsifier: 0.5 part by weight of alkylaryl polyglycol ether To produce a suitable preparation of active compound, 1 part by weight of active compound is mixed with the stated amount of solvents and emulsifier, and the concentrate is diluted with emulsifier-containing water to the desired concentration. Discs of Chinese cabbage (Brassica pekinensis) are sprayed with an active compound preparation of the desired concentration and, after drying, populated with larvae of the mustard beetle (Phaedon cochleariae). After 7 days, the activity in % is determined. 100% means that all beetle larvae have been killed; 0% means that none of the beetle larvae have been killed.
# Spodoptera frugiperda = Spodoptera frugiperda test (SPODFR spray treatment); format: in vivo; conditions: foliar, 168 h, sprayed maize leaf discs, after 7 days, read-out: effect in % (caterpillars killed)
# Experimental: as §1, with “maize leaves (Zea mays)” for “Chinese cabbage (Brassica pekinensis)”, “caterpillars” for “larvae”, “armyworm (Spodoptera frugiperda).” for “mustard beetle (Phaedon cochleariae).”, “effect” for “activity”, “determined” for “determined.”, “caterpillars” for “beetle larvae”
# [1] = logP by HPLC on reversed-phase columns (C 18), EEC Directive 79/831 Annex V.A8; format: physicochemical; conditions: reversed-phase C 18, acidic range pH 2.7; for chromatographic logP: reversed-phase HPLC column (C 18), pH 2.7, HPLC
# Experimental: The logP values reported in the table above and in the Preparation Examples were determined in accordance with EEC Directive 79/831 Annex V.A8 by HPLC (High Performance Liquid Chromatography) on reversed-phase columns (C 18), with the following methods: The LC-MS determination in the acidic range is carried out at pH 2.7 using the mobile phases 0.1% aqueous formic acid and acetonitrile (contains 0.1% formic acid), linear gradient from 10% acetonitrile to 95% acetonitrile Calibration was carried out using unbranched alkan-2-ones (having from 3 to 16 carbon atoms) with known logP values (the logP values were determined by the retention times using linear interpolation between two successive alkanones).
# [2] = table of compounds, read-out: log P
compound,measurement,setting,value
Cc1cc(Br)cc(C(=O)NC(C)C)c1NC(=O)c1sc(Cn2nnc(C(F)(F)F)n2)nc1-c1ccccc1Cl [Compound 11],pest or weed control at 100 g/ha,Phaedon cochleariae,83%
same,pest or weed control at 100 g/ha,Spodoptera frugiperda,83%
same,chromatographic logP,[1]; [2],4.28
"O=C(O)c1sc(Cn2nnc(C(F)(F)F)n2)nc1-c1ccccc1Cl [Example No. X (IV-2), 4-(2-chlorophenyl)-2-{[5-(trifluoromethyl)-2H-tetrazol-2-yl]methyl}-1,3-thiazole-5-carboxylic acid]",chromatographic logP,[1]; Preparation Examples,2.63
Cc1cc(Cl)cc(C(=O)NC(C)(C)C)c1NC(=O)c1sc(Cn2nnc(C(F)(F)F)n2)nc1-c1ccccc1Cl [Compound 27],pest or weed control at 100 g/ha,Phaedon cochleariae,100%
same,pest or weed control at 100 g/ha,Spodoptera frugiperda,100%
same,chromatographic logP,[1]; [2],4.59
Cc1cc(Br)cc(C(=O)NC(C)(C)C)c1NC(=O)c1nc(Cn2nnc(C(F)(F)F)n2)oc1-c1ccccc1Cl [Compound 22],chromatographic logP,[1]; [2],4.52
CNC(=O)c1cc(Cl)cc(C)c1NC(=O)c1nc(Cn2nnc(C(F)(F)F)n2)oc1-c1ccccc1Cl [Compound 16],chromatographic logP,[1]; [2],3.65
"COC(=O)c1cc(C(=O)CBr)cn1-c1ncccc1Cl [Example No. XVI, methyl 4-(bromoacetyl)-1-(3-chloropyridin-2-yl)-1H-pyrrole-2-carboxylate]",chromatographic logP,[1]; Preparation Examples,2.28
CNC(=O)c1cc(Br)cc(C)c1NC(=O)c1nc(Cn2nnc(C(F)(F)F)n2)sc1-c1ccccc1Cl [Compound 1],chromatographic logP,[1]; [2],3.98
Cc1cc(Br)cc(C(=O)NC(C)(C)C)c1NC(=O)c1nc(Cn2nnc(C(F)(F)F)n2)sc1-c1ccccc1Cl [Compound 29],chromatographic logP,[1]; [2],4.83
Cc1cc(C#N)cc(C(=O)NC(C)C)c1NC(=O)c1sc(Cn2nnc(C(F)(F)F)n2)nc1-c1ccccc1Cl [Compound 25],pest or weed control at 100 g/ha,Phaedon cochleariae,100%
same,pest or weed control at 100 g/ha,Spodoptera frugiperda,100%
same,chromatographic logP,[1]; [2],3.7
"Cc1cc(Cl)cc2c(=O)oc(-c3cnc(Cn4nnc(C(F)(F)F)n4)nc3-c3ccccc3Cl)nc12 [6-chloro-2-[4-(2-chlorophenyl)-2-{[5-(trifluoromethyl)-2H-tetrazol-2-yl]methyl}pyrimidin-5-yl]-8-methyl-4H-3,1-benzoxazin-4-one]",chromatographic logP,[1]; Preparation Examples,5.16
CNC(=O)c1cc(Br)cc(C)c1NC(=O)c1nc(Cn2nnc(C(F)(F)F)n2)oc1-c1ccccc1Cl [Compound 21],chromatographic logP,[1]; [2],3.72
"COC(=O)c1cc(C(C)=O)cn1-c1ncccc1Cl [Example No. XV, methyl 4-acetyl-1-(3-chloropyridin-2-yl)-1H-pyrrole-2-carboxylate]",chromatographic logP,[1]; Preparation Examples,1.74
CNC(=O)c1cc(Cl)cc(C)c1NC(=O)c1cc(Cn2nnc(C(F)(F)C(F)(F)F)n2)cn1-c1ccccc1Cl [Compound 44],pest or weed control at 100 g/ha,Phaedon cochleariae,100%
same,pest or weed control at 100 g/ha,Spodoptera frugiperda,100%
same,chromatographic logP,[1]; [2],4.09
CNC(=O)c1cc(Cl)cc(C)c1NC(=O)c1cn(Cc2ccc(C(F)(F)F)nc2)nc1-c1ccccc1Cl [Compound 4],chromatographic logP,[1]; [2],3.12
Cc1cc(Cl)cc(C(=O)NC(C)C)c1NC(=O)c1sc(Cn2nnc(C(F)(F)F)n2)nc1-c1ccccc1Cl [Compound 32],pest or weed control at 100 g/ha,Phaedon cochleariae,100%
same,pest or weed control at 100 g/ha,Spodoptera frugiperda,100%
same,chromatographic logP,[1]; [2],4.15
Cc1cc(Cl)cc(C(=O)NC(C)(C)C)c1NC(=O)c1nc(Cn2nnc(C(F)(F)F)n2)oc1-c1ccccc1Cl [Compound 18],chromatographic logP,[1]; [2],4.46
Cc1cc(C#N)cc(C(=O)NC(C)(C)C)c1NC(=O)c1nc(Cn2nnc(C(F)(F)F)n2)oc1-c1ccccc1Cl [Compound 7],chromatographic logP,[1]; [2],3.95
Cc1cc(Cl)cc(C(N)=O)c1NC(=O)c1nc(Cn2nnc(C(F)(F)F)n2)oc1-c1ccccc1Cl [Compound 20],chromatographic logP,[1]; [2],3.45
Cc1cc(C#N)cc(C(=O)NC(C)(C)C)c1NC(=O)c1nc(Cn2nnc(C(F)(F)F)n2)sc1-c1ccccc1Cl [Compound 28],chromatographic logP,[1]; [2],4.29
Cc1cc(Br)cc(C(=O)NC(C)C)c1NC(=O)c1nc(Cn2nnc(C(F)(F)F)n2)oc1-c1ccccc1Cl [Compound 23],chromatographic logP,[1]; [2],4.21
"CCOC(=O)c1cnc(Cn2nnc(C(F)(F)F)n2)nc1-c1ccccc1Cl [Example No. (X), ethyl 4-(2-chlorophenyl)-2-[5-(trifluoromethyl)-2H-tetrazol-2-yl]methylpyrimidine-5-carboxylate]",chromatographic logP,[1]; Preparation Examples,3.56
CNC(=O)c1cc(C#N)cc(C)c1NC(=O)c1nc(Cn2nnc(C(F)(F)F)n2)sc1-c1ccccc1Cl [Compound 24],chromatographic logP,[1]; [2],3.46
CNC(=O)c1cc(Cl)cc(C)c1NC(=O)c1cnc(Cn2nnc(C(F)(F)F)n2)nc1-c1ccccc1Cl [Compound 36],pest or weed control at 100 g/ha,Phaedon cochleariae,100%
same,pest or weed control at 100 g/ha,Spodoptera frugiperda,100%
same,chromatographic logP,[1]; [2],3.31
Cc1cc(Br)cc(C(=O)NC(C)C)c1NC(=O)c1nc(Cn2nnc(C(F)(F)F)n2)sc1-c1ccccc1Cl [Compound 5],chromatographic logP,[1]; [2],4.48
CNC(=O)c1cc(C#N)cc(C)c1NC(=O)c1cc(C(=O)Cn2nnc(C(F)(F)F)n2)cn1-c1ncccc1Cl [Compound 33],chromatographic logP,[1]; [2],2.75
Cc1cc(Cl)cc(C(N)=O)c1NC(=O)c1sc(Cn2nnc(C(F)(F)F)n2)nc1-c1ccccc1Cl [Compound 13],pest or weed control at 100 g/ha,Phaedon cochleariae,100%
same,pest or weed control at 100 g/ha,Spodoptera frugiperda,100%
same,chromatographic logP,[1]; [2],3.34
Cc1cc(Cl)cc(C(=O)NC(C)C)c1NC(=O)c1nc(Cn2nnc(C(F)(F)F)n2)sc1-c1ccccc1Cl [Compound 2],chromatographic logP,[1]; [2],4.34
Cc1cc(Cl)cc(C(=O)NC(C)C)c1NC(=O)c1nc(Cn2nnc(C(F)(F)F)n2)oc1-c1ccccc1Cl [Compound 19],chromatographic logP,[1]; [2],4.11
CNC(=O)c1cc(Cl)cc(C)c1NC(=O)c1sc(Cn2nnc(C(F)(F)F)n2)nc1-c1ccccc1Cl [Compound 10],pest or weed control at 100 g/ha,Phaedon cochleariae,100%
same,chromatographic logP,[1]; [2],3.63
"O=C(Cn1nnc(C(F)(F)F)n1)c1cc(C(=O)O)n(-c2ncccc2Cl)c1 [Example No. IV-3, 1-(3-chloropyridin-2-yl)-4-{[5-(trifluoromethyl)-2H-tetrazol-2-yl]acetyl}-1H-pyrrole-2-carboxylic acid]",chromatographic logP,[1]; Preparation Examples,2.24
CNC(=O)c1cc(C#N)cc(C)c1NC(=O)c1nc(Cn2nnc(C(F)(F)F)n2)oc1-c1ccccc1Cl [Compound 6],chromatographic logP,[1]; [2],3.25
CNC(=O)c1cc(C#N)cc(C)c1NC(=O)c1sc(Cn2nnc(C(F)(F)F)n2)nc1-c1ccccc1Cl [Compound 14],pest or weed control at 100 g/ha,Spodoptera frugiperda,100%
same,chromatographic logP,[1]; [2],3.19
CNC(=O)c1cc(Cl)cc(C)c1NC(=O)c1cnc(Cn2nnc(C(F)(F)F)n2)nc1-c1ccccc1Cl [N-[4-chloro-2-methyl-6-(methylcarbamoyl)phenyl]-4-(2-chlorophenyl)-2-{[5-(trifluoromethyl)-2H-tetrazol-2-yl]methyl}pyrimidine-5-carboxamide],chromatographic logP,[1]; Preparation Examples,3.13
"COC(=O)c1cc(C(=O)Cn2nnc(C(F)(F)F)n2)cn1-c1ncccc1Cl [Example No. XVII, methyl 1-(3-chloropyridin-2-yl)-4-{[5-(trifluoromethyl)-2H-tetrazol-2-yl]acetyl}-1H-pyrrole-2-carboxylate]",chromatographic logP,[1]; Preparation Examples,2.97
"CCOC(=O)c1cnc(CBr)nc1-c1ccccc1Cl [Example No. (IX), ethyl 2-(bromomethyl)-4-(2-chlorophenyl)pyrimidine-5-carboxylate]",chromatographic logP,[1]; Preparation Examples,3.32
CNC(=O)c1cc(Br)cc(C)c1NC(=O)c1sc(Cn2nnc(C(F)(F)F)n2)nc1-c1ccccc1Cl [Compound 12],pest or weed control at 100 g/ha,Phaedon cochleariae,83%
same,chromatographic logP,[1]; [2],3.73
"COC(=O)c1sc(CBr)nc1-c1ccccc1Cl [Example No. XII, methyl 2-(bromomethyl)-4-(2-chlorophenyl)-1,3-thiazole-5-carboxylate]",chromatographic logP,[1]; Preparation Examples,4.12
"COC(=O)c1sc(Cn2nnc(C(F)(F)F)n2)nc1-c1ccccc1Cl [Example No. XIII, methyl 4-(2-chlorophenyl)-2-{[5-(trifluoromethyl)-2H-tetrazol-2-yl]methyl}-1,3-thiazole-5-carboxylate]",chromatographic logP,[1]; Preparation Examples,3.6
CNC(=O)c1cc(C#N)cc(C)c1NC(=O)c1cn(Cc2ccc(C(F)(F)F)nc2)nc1-c1ccccc1Cl [Compound 31],pest or weed control at 100 g/ha,Spodoptera frugiperda,100%
same,log P,"[1]; HPLC, table of compounds",2.83
same,chromatographic logP,[1]; [2],2.78
"O=C(O)c1cnc(Cn2nnc(C(F)(F)F)n2)nc1-c1ccccc1Cl [Example No. (IV-1), 4-(2-chlorophenyl)-2-[5-(trifluoromethyl)-2H-tetrazol-2-yl]methylpyrimidine-5-carboxylic acid]",chromatographic logP,[1]; Preparation Examples,2.5
Cc1cc(C#N)cc(C(=O)NC(C)C)c1NC(=O)c1nc(Cn2nnc(C(F)(F)F)n2)oc1-c1ccccc1Cl [Compound 15],chromatographic logP,[1]; [2],3.69
